The inhibition is the change of the read-out against control, counted positive when it falls. By IC50 is commonly meant the concentration needed to halve the response being measured. Usually Cmax stands for the maximum level reached in the sampled fluid or tissue. For orientation: AUC(0-inf) means total exposure, with the tail of the curve extrapolated. For orientation: bioavailability means dose-corrected exposure relative to a reference, in per cent. A lower bioavailability goes with little systemic uptake. For orientation: half-life means the time needed for the level to fall by half in the phase considered. Lower therefore signals fast loss.

This note sets out measurements from ChEMBL document CHEMBL4627316, “Design and synthesis of potent PAR-1 antagonists based on vorapaxar” (Bioorg Med Chem Lett, 2020).

Series [1] addresses T1, Proteinase-activated receptor 1 (Homo sapiens) (UniProt P25116).
T1 sequence (whole entry): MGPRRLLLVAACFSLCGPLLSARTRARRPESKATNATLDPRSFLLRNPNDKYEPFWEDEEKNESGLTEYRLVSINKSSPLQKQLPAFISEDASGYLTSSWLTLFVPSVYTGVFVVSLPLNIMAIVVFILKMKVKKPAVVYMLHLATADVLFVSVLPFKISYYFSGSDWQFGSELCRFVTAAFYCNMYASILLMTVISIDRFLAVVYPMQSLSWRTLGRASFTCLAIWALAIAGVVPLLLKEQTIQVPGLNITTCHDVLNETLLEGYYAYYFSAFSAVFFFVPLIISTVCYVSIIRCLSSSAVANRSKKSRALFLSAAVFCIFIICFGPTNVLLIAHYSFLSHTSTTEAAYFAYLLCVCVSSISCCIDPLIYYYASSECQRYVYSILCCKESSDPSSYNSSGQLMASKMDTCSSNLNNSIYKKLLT
Description: Antagonist activity at human PAR1 expressed in KNRK cells assessed as inhibition of agonist-induced intracellular calcium mobilization at 10^-5 M by fluorimetric assay relative to control. The class given is functional, cell-based.

Series [2] has as its target T1, Proteinase-activated receptor 1 (Homo sapiens). Description: Antagonist activity at human PAR1 expressed in KNRK cells assessed as inhibition of agonist-induced intracellular calcium mobilization at 10^-6 M by fluorimetric assay relative to control. The class given is functional, cell-based. A general note: Calcium flux is commonly read through the fluorescence of an indicator in the cells.

The target is the same in series [3]. Briefly: Antagonist activity at human PAR1 expressed in KNRK cells assessed as inhibition of agonist-induced intracellular calcium mobilization at 10^-7 M by fluorimetric assay relative to control. The format is functional, cell-based.
Series [4] deals with T2, Proteinase-activated receptor 1 (Homo sapiens, UniProt P25116).
T2 sequence (P25116 whole entry): T1 sequence (whole entry)
Description: Antagonist activity at human PAR1 expressed in KNRK cells assessed as inhibition of agonist-induced intracellular calcium mobilization by fluorimetric assay. The class given is functional, cell-based.

The nature of series [5]: Cmax in Sprague-Dawley rat at 5 mg/kg, po or 1 mg/kg, iv. Particulars: in vivo. The class given is ADME, organism-based.
Series [6] can be described thus: AUC (0 to infinity) in Sprague-Dawley rat at 5 mg/kg, po or 1 mg/kg, iv. The format is ADME, organism-based. As to conditions: in vivo.
Series [7] in a line: Ratio of drug concentration in brain to plasma in Sprague-Dawley rat at 5 mg/kg, po measured at 8 hrs. The class given is ADME, organism-based. Particulars: read-out: BPR.
A short description of series [8]: Oral bioavailability in Sprague-Dawley rat at 5 mg/kg. Particulars: in vivo. The class given is ADME, organism-based.
Series [9] can be described thus: Half life in Sprague-Dawley rat at 5 mg/kg, po or 1 mg/kg, iv. The class given is ADME, organism-based. Particulars: in vivo.

Turning to `CCOC(=O)CN[C@@]12C[C@@H]3CCCC[C@H]3[C@H](/C=C/c3ccc(-c4cccc(F)c4)cn3)[C@@H]1[C@@H](C)OC2=O`, the figures for the inhibition in series [1], in [2] and in series [3] were 101%, 81% and -5%, respectively.

For `C[C@H]1OC(=O)[C@@H]2C[C@@H]3C[C@H](NCC(=O)O)CC[C@H]3[C@H](/C=C/c3ccc(-c4cccc(F)c4)cn3)[C@H]12`, the inhibition was determined as 48% in [1], 34% in series [2] and 13% in [3].

`C[C@H]1OC(=O)[C@@H]2C[C@@H]3C[C@H](NCC#N)CC[C@H]3[C@H](/C=C/c3ccc(-c4cccc(F)c4)cn3)[C@H]12`: in series [4], the IC50 amounted to 180 nM. In series [5], this molecule yielded a Cmax of 580 ng/mL. Moreover, the total exposure AUC(0-inf) in [6] was 6390 ng·h/mL. In addition, in series [7], the Kp at 8 h was 0.38. In addition, the bioavailability in series [8] was 98%. Also, the values for the inhibition in [1], in [2] and in series [3] were 99%, 71% and 44%, respectively. In series [9], this molecule gave a half-life of 6.4 h.

Take `C[C@H]1OC(=O)[C@]2(NCC#N)C[C@@H]3CCCC[C@H]3[C@H](/C=C/c3ccc(-c4cccc(F)c4)cn3)[C@H]12`: the IC50 in [4] is 760 nM. In [5], the concentration peaked (Cmax) at 2310 ng/mL. The same molecule came in with an AUC(0-inf) in series [6] of 5140 ng·h/mL. For the same molecule, the Kp at 8 h in series [7] worked out at 0.35. This molecule also showed a bioavailability in [8] of 34%. In addition, the inhibition in [1] is 99%; in series [2] it was 92%; in series [3], -4%. In series [9], this molecule gave a half-life of 8.5 h.

Regarding `C[C@H]1OC(=O)[C@@H]2C[C@@H]3C[C@H](Nc4nc5ccccc5o4)CC[C@H]3[C@H](/C=C/c3ccc(-c4cccc(F)c4)cn3)[C@H]12`, the inhibition was 81% in [1], 28% in series [2] and 3% in series [3].

`CCOC(=O)N[C@@H]1CC[C@@H]2[C@@H](C1)C[C@H]1C(=O)O[C@H](C)[C@H]1[C@H]2/C=C/c1ccc(-c2cccc(F)c2)cc1`: the inhibition in [1] is 42%; in [2], 26%; in [3] it was -7%.

As to `C[C@H]1OC(=O)[C@]2(NCC(=O)O)C[C@@H]3CCCC[C@H]3[C@H](/C=C/c3ccc(-c4cccc(F)c4)cn3)[C@H]12`, the IC50 in series [4] came out at 1100 nM. This molecule also came in with a Cmax in series [5] of 1140 ng/mL. This molecule also registered an AUC(0-inf) in [6] of 5000 ng·h/mL. Further, in series [7], the Kp at 8 h worked out at 0.68. Also, the bioavailability in series [8] stood at 70%. In addition, the inhibition in [1] turned out to be 100%; in [2], 61%; in series [3] it was 23%. In [9], this molecule showed a half-life of 2.9 h.

On to `CCOC(=O)N[C@@H]1CC[C@@H]2[C@@H](C1)C[C@H]1C(=O)O[C@H](C)[C@H]1[C@H]2/C=C/c1ccc(-c2ccccn2)cc1`, for which, in [4], the IC50 was found to be 550 nM. In addition, in [5], the Cmax amounted to 710 ng/mL. The molecule also returned a total exposure AUC(0-inf) in series [6] of 7100 ng·h/mL. For the same molecule, the Kp at 8 h in series [7] was found to be 0.54. Besides, the bioavailability in series [8] worked out at 44%. Moreover, the inhibition was 66% in series [1], 40% in series [2] and 5% in series [3]. In [9], this molecule showed a half-life of 5 h.

As to `CCOC(=O)N[C@@H]1CC[C@@H]2[C@@H](C1)C[C@H]1C(=O)O[C@H](C)[C@H]1[C@H]2/C=C/c1ccc(-c2cccc(F)c2)cn1` [VORAPAXAR], the IC50 in [4] stood at 250 nM. In series [5], the peak level (Cmax) was 440 ng/mL. The same molecule had an AUC(0-inf) in [6] of 3500 ng·h/mL. In addition, the Kp at 8 h in series [7] was 1.08. This molecule displayed a bioavailability in series [8] of 94%. The inhibition in [1] worked out at 101%; in series [2], 99%; in series [3], 25%. The same molecule gave a half-life in series [9] of 4 h.

For `Cc1ccnc(N[C@@H]2CC[C@@H]3[C@@H](C2)C[C@H]2C(=O)O[C@H](C)[C@H]2[C@H]3/C=C/c2ccc(-c3cccc(F)c3)cn2)n1`, the IC50 in series [4] turned out to be 610 nM. For the same molecule, the Cmax in series [5] came to 110 ng/mL. This molecule also showed an AUC(0-inf) in series [6] of 860 ng·h/mL. In [7], the Kp at 8 h came to 1.13. Besides, the bioavailability in series [8] was determined as 23%. In addition, the inhibition worked out at 101% in series [1], 98% in series [2] and 20% in [3]. In series [9], this molecule showed a half-life of 6.7 h.
